What was measured:
[1] = tested on: Kras; test: Western blot for Kras expression in U251 glioma cells; format: cell-based, human; conditions: 500 μM, 24 hours
Protocol: U251 glioma cells were treated with 500 μM Sigma POH, GLP POH or iso-POH (isoPOH65, isoPOH79) for 24 hours, then Western blot was performed.

[2] = tested on: glucose-regulatory protein 78 (GRP-78) and the apoptosis marker CHOP; test: Western blot for ER stress markers in U251 cells; format: cell-based, human; conditions: U251 TMZ-sensitive and TMZ-resistant (U251-TR1, U251-TR2) cells, 1.5 mM, 18 hours
Protocol: U251 TMZ-sensitive and TMZ-resistant (U251-TR1, U251-TR2) cells were treated with Sigma POH (1.5 mM) or GLP POH (1.5 mM) for 18 hours, then Western blot was performed.

[3] = tested on: U251 human glioma cells; test: MTT cytotoxicity assay, U251 glioma cells; format: cell-based
Text: (§1) J. of Immunological Methods 65: 55 63, 1983. The cytoxicity of the present compound may be studied by colony formation assay. […] Invasion inhibition may be studied by Boyden chambers. In this assay a layer of reconstituted basement membrane. […] Sigma POH is the POH purchased from Sigma Chemicals having a purity of about 96%. […] KWH0744 is the crude POH purchased from Wako having a purity of about 89.5%. […] In vitro cytotoxicity of iso-POH in temozolomide-sensitive or temozolomide-resistant cells were also studied. […] Similarly.

[4] = tested on: A172 human glioma cells; test: MTT cytotoxicity assay, A172 glioma cells; format: cell-based
Text: as §1

[5] = tested on: U251 temozolomide-resistant cells; test: MTT cytotoxicity assay, U251 temozolomide-resistant cells; format: cell-based, human; conditions: 0 mM-3 mM
Text: (§2) J. of Immunological Methods 65: 55 63, 1983. The cytoxicity of the present compound may be studied by colony formation assay. […] Invasion inhibition may be studied by Boyden chambers. In this assay a layer of reconstituted basement membrane. […] In vitro cytotoxicity of iso-POH in temozolomide-sensitive or temozolomide-resistant cells were also studied. […] Similarly.

[6] = tested on: U87 human glioma cells; test: MTT cytotoxicity assay, U87 glioma cells; format: cell-based; conditions: U87 temozolomide sensitive, 48 hours, FIG. 7A
Text: as §2

[7] = tested on: U87 temozolomide-resistant cells; test: MTT cytotoxicity assay, U87 temozolomide-resistant cells; format: cell-based, human; conditions: 48 hours, FIG. 7B
Text: as §2

[8] = tested on: A172 temozolomide-resistant cells; test: MTT cytotoxicity assay, A172 temozolomide-resistant cells; format: cell-based, human; conditions: 48 hours, FIG. 4B
Text: as §2

[9] = tested on: LN229 temozolomide-resistant cells; test: MTT cytotoxicity assay, LN229 temozolomide-resistant cells; format: cell-based, human; conditions: 48 hours, FIG. 6B
Text: as §2

[10] = tested on: LN229 human glioma cells; test: MTT cytotoxicity assay, LN229 glioma cells; format: cell-based
Text: as §1

## C=C(C)[C@@H]1CC=C(CO)CC1 [Sigma POH, perillyl alcohol]
[1]
  Kras expression: decreased Kras expression
[2]
  endoplasmic reticulum (ER) stress: increased endoplasmic reticulum (ER) stress
  expression of glucose-regulatory protein 78 (GRP-78): increased expression
  expression of the apoptosis marker CHOP: increased expression

## CC(C)=C1CC=C(CO)CC1 [iso-POH, (4-isopropylidene cyclohex-1-enyl)methanol]
[1]
  Kras expression: decreased Kras expression
[3]; TMZ sensitive U251, 24 hours, 0 mM-3 mM, FIG. 8A
  cytotoxicity (MTT): greater cytotoxicity
[3]; U251 temozolomide-sensitive, 48 hours, FIG. 5A
  cytotoxic response (MTT): greatest response
[3]; U1251 human glioma cells, FIG. 2, versus POH of different purity
  cytotoxicity (MTT): much better cytotoxicity than POH with different purity
[2]
  endoplasmic reticulum (ER) stress: increased ER stress
[4]; A172 human glioma cells, FIG. 3, versus POH of different purity
  cytotoxicity (MTT): much better cytotoxicity than POH with different purity
[4]; A172 temozolomide-sensitive, 48 hours, FIG. 4A, compared to GLP POH and Sigma POH
  cytotoxic response (MTT): greatest cytotoxic response
[5]; U251-TR1, 24 hours, FIG. 8C
  cytotoxicity (MTT): greater cytotoxicity
[5]; U251-TR2, 24 hours, FIG. 8B
  cytotoxicity (MTT): greater cytotoxicity
[6]
  cytotoxic response (MTT): greatest response
[7]
  cytotoxic response (MTT): greatest response
[8]
  cytotoxic response (MTT): response pattern was also seen
[9]
  cytotoxic response (MTT): same response
[10]; LN229 human glioma cells, FIG. 1, versus POH of different purity
  cytotoxicity (MTT): much better cytotoxicity than POH with different purity
[10]; LN229 temozolomide sensitive, 48 hours, FIG. 6A
  cytotoxic response (MTT): same response

From patent publication US9987237B2, “Methods and devices for using isoperillyl alcohol” (NEONC TECHNOLOGIES INC., priority 2010, dated 2018)
